Literature values as cited in patent publication US20220331268A1, “TREATMENT OF SKIN DISORDERS WITH TOPICAL COMBINATION COMPOSITIONS COMPRISING TAPINAROF AND AN ADDITIONAL AHR ACTIVATOR” (Sol-Gel Technologies Ltd., priority 2019, published 2022).

Assays:
[1] = psoriasis treatment, single drug; placebo 20.2%
[2] = across all groups treated
[3] = 1% tapinarof arm compared with 0.5% arm or vehicle
[4] = tested on: interleukin-6 and interleukin-17A; details: mouse models and in vitro human skin studies

SMILES	adverse effects [1]	contact dermatitis (side-effect, among most common) [2]	folliculitis (side-effect) [2]	efficacy [3]	onset of action [3]	effect on proinflammatory mediators including interleukin-6 and interleukin-17A [4]	skin barrier function [4]
CC(C)c1c(O)cc(/C=C/c2ccccc2)cc1O [Tapinarof, 3,5-dihydroxy-4-isopropyl-trans-stilbene]	44.5%	> 5%	9%	higher efficacy	quicker onset of action	inhibit	enhance skin barrier function
C=C1/C(=C\C=C2/CCC[C@]3(C)[C@@H]([C@H](C)/C=C/[C@@H](O)C4CC4)CC[C@@H]23)C[C@@H](O)C[C@@H]1O [calcipotriene]	19.5%	–	–	–	–	–	–
